One experiment concerns the target full-length ATR (Homo sapiens (Human), UniProt Q13535). The experiment is described as follows: ATR Inhibition Assay (radioactive-phosphate incorporation). The class given is biochemical. As to the method:
Compounds were screened for their ability to inhibit ATR kinase using a radioactive-phosphate incorporation assay. Assays were carried out in a mixture of 50 mM Tris/HCl (pH 7.5), 10 mM MgCl2 and 1 mM DTT. Final substrate concentrations were 10 μM [γ-33P]ATP (3 mCi 33P ATP/mmol ATP, Perkin Elmer) and 800 μM target peptide ([…]).
Assays were carried out at 25° C. in the presence of 5 nM full-length ATR. An assay stock buffer solution was prepared containing all of the reagents listed above, with the exception of ATP and the test compound of interest. 13.5 μL of the stock solution was placed in a 96 well plate followed by addition of 2 μL of DMSO stock containing serial dilutions of the test compound (typically starting from a final concentration of 15 μM with 3-fold serial dilutions) in duplicate (final DMSO concentration 7%). The plate was pre-incubated for 10 minutes at 25° C. and the reaction initiated by addition of 15 μL [γ-33P]ATP (final concentration 10 μM).
The reaction was stopped after 24 hours by the addition of 30 μL 0.1 M phosphoric acid containing 2 mM ATP. A multiscreen phosphocellulose filter 96-well plate (Millipore, Cat no. MAPHNOB50) was pretreated with 100 μL 0.2M phosphoric acid prior to the addition of 45 μL of the stopped assay mixture. The plate was washed with 5×200 μL 0.2M phosphoric acid. After drying, 100 μL Optiphase ‘SuperMix’ liquid scintillation cocktail (Perkin Elmer) was added to the well prior to scintillation counting (1450 Microbeta Liquid Scintillation Counter, Wallac).
After removing mean background values for all of the data points, Ki(app) data were calculated from non-linear regression analysis of the initial rate data using the Prism software package (GraphPad Prism version 3.0cx for Macintosh, GraphPad Software, San Diego Calif., USA).
Below is a chart showing the ATR Inhibition Ki values of compounds of the disclosure.

The test system of experiment [1] is HCT116 colorectal cancer cells. The experiment is described as follows: Cisplatin Sensitization Assay (96h cell viability MTS). The class given is cell-based. The settings on record: concentration of compound required to reduce the IC50 of Cisplatin alone by at least 3-fold, 96h MTS. On the procedure:
Compounds can be screened for their ability to sensitize HCT116 colorectal cancer cells to Cisplatin using a 96h cell viability (MTS) assay. […] Compounds and Cisplatin are then both added simultaneously to the cell media in 2-fold serial dilutions from a top final concentration of 10 μM as a full matrix of concentrations in a final cell volume of 200 μl, and the cells are then incubated at 37° C. in 5% CO2. After 96h, 40 μl of […] (Promega G358a) is added to each well and the cells are incubated for 1 h at 37° C. in 5% CO2.

[2] abbreviates: ATR Inhibition Ki(app), 10 μM ATP, 800 μM target peptide, 5 nM full-length ATR, 25° C.

The structures appear in SMILES notation. Like-named read-outs stand apart in the source and are kept apart here. Bounds are passed on as bounds.

The record followed here is patent publication US9630956B2, “Compounds useful as inhibitors of ATR kinase” (Vertex Pharmaceuticals Incorporated, priority 2010, dated 2017).

Sequence of full-length ATR (Q13535 whole entry): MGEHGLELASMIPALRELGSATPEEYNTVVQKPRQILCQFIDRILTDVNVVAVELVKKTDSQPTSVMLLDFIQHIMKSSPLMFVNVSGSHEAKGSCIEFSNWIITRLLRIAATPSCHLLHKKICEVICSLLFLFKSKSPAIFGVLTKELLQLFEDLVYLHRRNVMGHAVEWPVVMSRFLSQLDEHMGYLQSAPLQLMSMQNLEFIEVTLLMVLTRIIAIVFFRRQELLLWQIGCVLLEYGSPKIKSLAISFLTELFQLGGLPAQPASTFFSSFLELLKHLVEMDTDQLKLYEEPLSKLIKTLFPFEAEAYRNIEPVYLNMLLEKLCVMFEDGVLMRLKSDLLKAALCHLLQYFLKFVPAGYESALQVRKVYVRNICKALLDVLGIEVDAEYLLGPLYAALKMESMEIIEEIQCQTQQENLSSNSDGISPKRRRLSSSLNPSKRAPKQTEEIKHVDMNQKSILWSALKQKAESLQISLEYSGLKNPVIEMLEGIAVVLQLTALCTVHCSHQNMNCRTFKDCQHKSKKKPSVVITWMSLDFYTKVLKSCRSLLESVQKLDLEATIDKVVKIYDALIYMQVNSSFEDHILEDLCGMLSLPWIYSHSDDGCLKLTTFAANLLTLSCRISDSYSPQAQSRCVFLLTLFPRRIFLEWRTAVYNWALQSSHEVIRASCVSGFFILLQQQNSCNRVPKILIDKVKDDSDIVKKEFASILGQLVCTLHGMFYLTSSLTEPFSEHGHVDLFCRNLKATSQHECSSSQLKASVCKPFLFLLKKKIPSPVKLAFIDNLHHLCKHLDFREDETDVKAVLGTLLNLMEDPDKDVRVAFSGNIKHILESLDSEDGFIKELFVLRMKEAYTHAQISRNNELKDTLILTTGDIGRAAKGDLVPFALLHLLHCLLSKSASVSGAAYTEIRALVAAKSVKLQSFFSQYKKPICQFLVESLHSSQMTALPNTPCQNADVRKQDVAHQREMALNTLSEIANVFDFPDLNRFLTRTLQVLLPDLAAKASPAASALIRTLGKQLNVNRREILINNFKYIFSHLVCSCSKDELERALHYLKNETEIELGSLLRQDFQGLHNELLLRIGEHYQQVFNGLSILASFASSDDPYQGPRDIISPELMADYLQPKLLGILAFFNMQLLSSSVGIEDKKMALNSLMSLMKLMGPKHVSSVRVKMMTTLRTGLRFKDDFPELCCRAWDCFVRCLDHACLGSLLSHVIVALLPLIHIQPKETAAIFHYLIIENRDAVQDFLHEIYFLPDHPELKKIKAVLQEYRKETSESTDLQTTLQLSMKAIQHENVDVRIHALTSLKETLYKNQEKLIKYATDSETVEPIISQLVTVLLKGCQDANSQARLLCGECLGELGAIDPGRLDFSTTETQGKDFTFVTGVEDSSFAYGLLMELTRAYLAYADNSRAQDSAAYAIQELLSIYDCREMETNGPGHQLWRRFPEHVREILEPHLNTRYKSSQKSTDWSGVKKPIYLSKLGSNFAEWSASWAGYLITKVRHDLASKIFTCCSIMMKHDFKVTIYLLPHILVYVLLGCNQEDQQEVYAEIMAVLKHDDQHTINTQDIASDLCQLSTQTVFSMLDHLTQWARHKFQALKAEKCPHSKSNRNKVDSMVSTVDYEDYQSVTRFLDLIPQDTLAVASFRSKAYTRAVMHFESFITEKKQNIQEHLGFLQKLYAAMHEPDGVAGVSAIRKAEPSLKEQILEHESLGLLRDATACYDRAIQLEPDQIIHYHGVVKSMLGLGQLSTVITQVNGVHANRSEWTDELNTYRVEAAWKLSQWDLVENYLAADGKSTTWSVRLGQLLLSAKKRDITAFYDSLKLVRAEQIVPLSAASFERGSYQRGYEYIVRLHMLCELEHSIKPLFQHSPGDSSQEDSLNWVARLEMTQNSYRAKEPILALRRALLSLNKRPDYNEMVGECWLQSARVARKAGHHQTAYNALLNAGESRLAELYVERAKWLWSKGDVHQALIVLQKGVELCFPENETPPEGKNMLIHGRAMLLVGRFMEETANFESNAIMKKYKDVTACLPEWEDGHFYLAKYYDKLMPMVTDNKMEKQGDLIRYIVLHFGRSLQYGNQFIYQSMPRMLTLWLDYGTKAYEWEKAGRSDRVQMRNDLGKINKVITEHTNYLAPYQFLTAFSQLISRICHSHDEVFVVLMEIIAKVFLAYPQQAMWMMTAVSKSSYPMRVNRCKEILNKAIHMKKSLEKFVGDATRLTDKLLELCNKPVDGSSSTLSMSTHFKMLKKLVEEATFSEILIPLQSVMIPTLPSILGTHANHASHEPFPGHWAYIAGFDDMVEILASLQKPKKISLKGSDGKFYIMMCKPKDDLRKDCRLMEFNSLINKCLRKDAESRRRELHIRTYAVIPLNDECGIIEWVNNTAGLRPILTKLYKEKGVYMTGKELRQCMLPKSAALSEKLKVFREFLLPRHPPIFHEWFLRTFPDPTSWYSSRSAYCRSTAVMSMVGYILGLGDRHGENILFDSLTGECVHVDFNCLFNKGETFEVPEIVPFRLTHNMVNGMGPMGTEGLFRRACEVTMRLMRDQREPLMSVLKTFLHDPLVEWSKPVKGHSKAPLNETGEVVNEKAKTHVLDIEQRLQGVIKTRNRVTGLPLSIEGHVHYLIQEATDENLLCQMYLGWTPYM

Consider `CNCc1ccc(-c2nnc(-c3nc(-c4ccc(=O)n(C(C)C)c4)cnc3N)o2)cc1` [Compound I-3], for which the Ki at full-length ATR (setting [2]) fell in the range of 5 to 50 nM. Besides, in experiment [1], the “CP3 shift” value is 0.234 µM.
Regarding `CNCc1ccc(-c2nnc(-c3nc(-c4ccc(=O)n(C(C)C)c4)cnc3N)o2)c(OC)c1` [Compound I-6], on full-length ATR (setting [2]), the Ki is at most 5 nM. Also, in experiment [1], the “CP3 shift” value amounted to 0.156 µM.
With `CNCc1ccc(-c2cc(-c3nc(-c4ccc(=O)n(C(C)C)c4)cnc3N)on2)cc1` [Compound I-11], the Ki at full-length ATR (setting [2]) is at most 5 nM. Further, the “CP3 shift” value in experiment [1] amounted to 0.156 µM.
The matching figures for `CNCc1ccc(-c2cc(-c3nc(-c4ccc(=O)n(C(C)C#N)c4)cnc3N)on2)cc1` (stereo not shown) [Compound I-15]: at most 5 nM and 0.039 µM.
The matching figures for `CNCc1ccc(-c2cc(-c3nc(-c4ccc(=O)n(C5CCC(C)C5)c4)cnc3N)on2)cc1` (stereo not shown) [Compound I-22]: at most 5 nM and 0.02 µM.
As for `CNCc1ccc(-c2nnc(-c3nc(-c4ccc(=O)n(C5CCCC5)c4)cnc3N)o2)c(OC)c1` [Compound I-32], the Ki on full-length ATR (setting [2]) is at most 5 nM. For the same compound, the “CP3 shift” value in experiment [1] turned out to be 0.079 µM.
The matching figures for `CNCc1ccc(-c2nnc(-c3nc(-c4ccc(=O)n(C(C)C5CC5)c4)cnc3N)o2)c(OC)c1` (stereo not shown) [Compound I-37]: at most 5 nM and 0.078 µM.
The matching figures for `CC(N)c1cccc(-c2nnc(-c3nc(-c4ccc(=O)n(C(C)C)c4)cnc3N)o2)c1` (stereo not shown) [Compound I-42]: at most 5 nM and 0.156 µM.
Consider `CNCc1cccc(-c2cc(-c3nc(-c4ccc(=O)n(C(C)C)c4)cnc3N)on2)c1` [Compound I-49, 5-(5-amino-6-(3-(3-((methylamino)methyl)phenyl)isoxazol-5-yl)pyrazin-2-yl)-1-isopropylpyridin-2(1H)-one], for which, at full-length ATR, the Ki was 5 to 50 nM. Further, the “CP3 shift” value in experiment [1] turned out to be 0.625 µM.
For the compound `CC(C)(C)NCc1ccc(-c2cc(-c3nc(-c4ccc(=O)n(C5CCCC5)c4)cnc3N)on2)cc1` [Compound I-50], the Ki on full-length ATR (setting [2]) is at most 5 nM. Further, the “CP3 shift” value in experiment [1] worked out at 0.312 µM.
The matching figures for `CNCc1ccc(-c2cc(-c3nc(-c4ccc(=O)n(C(C)C5CC5)c4)cnc3N)on2)c(F)c1` (stereo not shown) [Compound I-54]: at most 5 nM and 0.039 µM.
Turning to `CC(N)c1cccc(-c2cc(-c3nc(-c4ccc(=O)n(C(C)C)c4)cnc3N)on2)c1` (stereo not shown) [Compound I-55], the Ki at full-length ATR (setting [2]) is at most 5 nM. Also, the “CP3 shift” value in experiment [1] is 0.039 µM.
The matching figures for `CC(N)c1cccc(-c2cc(-c3nc(-c4ccc(=O)n(C(C)C5CC5)c4)cnc3N)on2)c1` (stereo not shown) [Compound I-57, 5-(5-amino-6-(3-(3-(1-aminoethyl)phenyl)isoxazol-5-yl)pyrazin-2-yl)-1-(1-cyclopropylethyl)pyridin-2(1H)-one]: at most 5 nM and 0.02 µM.
As to `CC(C)n1cc(-c2cnc(N)c(-c3cc(-c4ccc(CN[C@H]5CCOC5)cc4)no3)n2)ccc1=O` [Compound I-58], the “CP3 shift” value in experiment [1] is 0.312 µM.
With `CC(C)NCc1ccc(-c2cc(-c3nc(-c4ccc(=O)n(C(C)C)c4)cnc3N)on2)cc1` [Compound I-60], the Ki on full-length ATR (setting [2]) was at most 5 nM. Further, the “CP3 shift” value in experiment [1] amounted to 0.312 µM.
For `CC(C)n1cc(-c2cnc(N)c(-c3cc(-c4ccc(CNC5CC5)cc4)no3)n2)ccc1=O` [Compound I-61] the same measures were at most 5 nM and 0.078 µM.
For the compound `CNCc1ccc(-c2cc(-c3nc(-c4ccc(=O)n(C(C)C(=O)NC)c4)cnc3N)on2)cc1` (stereo not shown) [Compound I-91], the Ki on full-length ATR (setting [2]) was at most 5 nM.
Same read-out and setting: in the case of `CNCc1ccc(-c2cc(-c3nc(-c4ccc(=O)n(CCOC)c4)cnc3N)on2)cc1` [Compound I-95] it was at most 5 nM; in that of `CNCc1ccc(-c2cc(-c3nc(-c4ccc(=O)n(CC(N)=O)c4)cnc3N)on2)cc1` [Compound I-98], at most 5 nM; in that of `CC(C#N)n1cc(-c2cnc(N)c(-c3cc(-c4ccc(CNC5CC5)cc4)no3)n2)ccc1=O` (stereo not shown) [Compound I-99], at most 5 nM.
For the compound `CNCc1ccc(-c2cc(-c3nc(-c4c[nH]c(=O)c(C(C)C)c4)cnc3N)on2)cc1` [Compound I-100], at full-length ATR (setting [2]), the Ki was at most 5 nM.
For the compound `CCN(CC)C(=O)C(C)n1cc(-c2cnc(N)c(-c3cc(-c4ccc(CNC)cc4)no3)n2)ccc1=O` (stereo not shown) [Compound I-101, 2-(5-(5-amino-6-(3-(4-((methylamino)methyl)phenyl)isoxazol-5-yl)pyrazin-2-yl)-2-oxopyridin-1(2H)-yl)-N,N-diethylpropanamide], on full-length ATR, the Ki is 5 to 50 nM.
For the compound `CC(N)c1cccc(-c2cc(-c3nc(-c4ccc(=O)[nH]c4)cnc3N)on2)c1` (stereo not shown) [Compound I-103], the Ki at full-length ATR (setting [2]) was at most 5 nM.
Consider `CC(N)c1cccc(-c2cc(-c3nc(-c4ccc(=O)n(C(C)C(N)=O)c4)cnc3N)on2)c1` (stereo not shown) [Compound I-104], for which, on full-length ATR (setting [2]), the Ki was at most 5 nM.
Still for that read-out and setting: in the case of `CNCc1ccc(-c2cc(-c3nc(-c4ccc(=O)n(C)c4)cnc3N)on2)cc1` [Compound I-108] it was at most 5 nM; in that of `CCCn1cc(-c2cnc(N)c(-c3cc(-c4ccc(CNC)cc4)no3)n2)ccc1=O` [Compound I-109], at most 5 nM.
Take `Nc1ncc(-c2ccc(=O)[nH]c2)nc1-c1cc(-c2ccc(CNC3CC3)cc2)no1` [Compound I-111, 5-[5-amino-6-[3-[4-[(cyclopropylamino)methyl]phenyl]isoxazol-5-yl]pyrazin-2-yl]-1H-pyridin-2-one]: the Ki on full-length ATR (setting [2]) is at most 5 nM.
Still for that read-out and setting: the same measure for `Nc1ncc(-c2c[nH]c(=O)c(Cl)c2)nc1-c1cc(-c2ccc(CNC3CC3)cc2)no1` [Compound I-112]: at most 5 nM; for `CNCc1ccc(-c2cc(-c3nc(-c4ccc(=O)n(CC5(C)COC5)c4)cnc3N)on2)cc1` [Compound I-113]: at most 5 nM.
On the same count and under the same terms, the same measure for `CNCc1ccc(-c2cc(-c3nc(-c4c[nH]c(=O)c(C5=CCCCC5)c4)cnc3N)on2)cc1` [Compound I-114]: at most 5 nM.
The same measure, in the same setting: in the case of `CNCc1ccc(-c2cc(-c3nc(-c4c[nH]c(=O)c(C5CCCCC5)c4)cnc3N)on2)cc1` [Compound I-115] it was at most 5 nM.
For the compound `CNCc1ccc(-c2cc(-c3nc(-c4ccc(=O)n(C(CO)CO)c4)cnc3N)on2)cc1` [Compound I-117], the Ki at full-length ATR (setting [2]) was at most 5 nM.
The same measure, in the same setting: the same measure for `CNCc1ccc(-c2cc(-c3nc(-c4ccc(=O)n(C(C)C)c4)cnc3N)on2)c(OC(C)C)c1` [Compound I-118]: at most 5 nM; for `CNCc1ccc(-c2cc(-c3nc(-c4cc(F)c(=O)n(C(C)C)c4)cnc3N)on2)cc1` [Compound I-121]: 5 to 50 nM.
As for `CCC(C#N)(CC)n1cc(-c2cnc(N)c(-c3cc(-c4ccc(CNC5CC5)cc4F)no3)n2)ccc1=O` [Compound I-135], the “CP3 shift” value in experiment [1] was determined as 0.01 µM.
`CCC(C#N)(CC)n1cc(-c2cnc(N)c(-c3cc(-c4ccc(CNC5CC5)cc4F)no3)n2)ccc1=O` [Compound I-136]: the Ki at full-length ATR (setting [2]) was at most 5 nM.
With `CCC(CC)n1cc(-c2cnc(N)c(-c3cc(-c4cccc(C5(N)CC5)c4)no3)n2)ccc1=O` [Compound I-137], the Ki at full-length ATR (setting [2]) was 5 to 50 nM.
The same measure, in the same setting: in the case of `CCC(CC)n1cc(-c2cnc(N)c(-c3cc(-c4ccc(F)c(C(C)N)c4)no3)n2)ccc1=O` (stereo not shown) [Compound I-141] it was at most 5 nM; in that of `CCC(CC)n1cc(-c2cnc(N)c(-c3cc(-c4cccc(C(C)N)c4F)no3)n2)ccc1=O` (stereo not shown) [Compound I-142], at most 5 nM; in that of `CC(C)(C#N)n1cc(-c2cnc(N)c(-c3cc(-c4ccc(CNC5CC5)cc4)no3)n2)ccc1=O` [Compound I-144], at most 5 nM.
Same read-out and setting: the same measure for `CCC(CC)n1cc(-c2cnc(N)c(-c3cc(-c4cccc(C(C)(C)N)c4)no3)n2)ccc1=O` [Compound I-146]: at most 5 nM; for `CC(CO)NCc1ccc(-c2cc(-c3nc(-c4ccc(=O)n(C(C)(C)C#N)c4)cnc3N)on2)cc1` (stereo not shown) [Compound I-147]: at most 5 nM; for `CNCc1ccc(-c2nnc(-c3nc(-c4ccc(=O)[nH]c4)cnc3N)o2)cc1` [Compound I-148]: at most 5 nM.
On the same count and under the same terms, the same measure for `CNCc1ccc(-c2nnc(-c3nc(-c4ccc(=O)n(C(C)C)c4C#N)cnc3N)o2)cc1` [Compound I-149]: 5 to 50 nM.
Turning to `CNCc1ccc(-c2nnc(-c3nc(-c4ccc(=O)n(C(C)C)c4C)cnc3N)o2)c(C)c1` [Compound I-150], the Ki on full-length ATR (setting [2]) lay in the range of 50 to 100 nM.
As for `CNCc1ccc(-c2nnc(-c3nc(-c4ccc(=O)n(C(C)C)c4C#N)cnc3N)o2)c(C)c1` [Compound I-151], the Ki on full-length ATR (setting [2]) lay within 5 to 50 nM.
